From patent publication US7057048B2, “Androgen receptor antagonists” (Warner Lambert Company LLC, priority 2003, dated 2006)

Biological target: T1, androgen receptor (Homo sapiens, UniProt P10275)
T1 sequence (P10275 1-920 Q868H): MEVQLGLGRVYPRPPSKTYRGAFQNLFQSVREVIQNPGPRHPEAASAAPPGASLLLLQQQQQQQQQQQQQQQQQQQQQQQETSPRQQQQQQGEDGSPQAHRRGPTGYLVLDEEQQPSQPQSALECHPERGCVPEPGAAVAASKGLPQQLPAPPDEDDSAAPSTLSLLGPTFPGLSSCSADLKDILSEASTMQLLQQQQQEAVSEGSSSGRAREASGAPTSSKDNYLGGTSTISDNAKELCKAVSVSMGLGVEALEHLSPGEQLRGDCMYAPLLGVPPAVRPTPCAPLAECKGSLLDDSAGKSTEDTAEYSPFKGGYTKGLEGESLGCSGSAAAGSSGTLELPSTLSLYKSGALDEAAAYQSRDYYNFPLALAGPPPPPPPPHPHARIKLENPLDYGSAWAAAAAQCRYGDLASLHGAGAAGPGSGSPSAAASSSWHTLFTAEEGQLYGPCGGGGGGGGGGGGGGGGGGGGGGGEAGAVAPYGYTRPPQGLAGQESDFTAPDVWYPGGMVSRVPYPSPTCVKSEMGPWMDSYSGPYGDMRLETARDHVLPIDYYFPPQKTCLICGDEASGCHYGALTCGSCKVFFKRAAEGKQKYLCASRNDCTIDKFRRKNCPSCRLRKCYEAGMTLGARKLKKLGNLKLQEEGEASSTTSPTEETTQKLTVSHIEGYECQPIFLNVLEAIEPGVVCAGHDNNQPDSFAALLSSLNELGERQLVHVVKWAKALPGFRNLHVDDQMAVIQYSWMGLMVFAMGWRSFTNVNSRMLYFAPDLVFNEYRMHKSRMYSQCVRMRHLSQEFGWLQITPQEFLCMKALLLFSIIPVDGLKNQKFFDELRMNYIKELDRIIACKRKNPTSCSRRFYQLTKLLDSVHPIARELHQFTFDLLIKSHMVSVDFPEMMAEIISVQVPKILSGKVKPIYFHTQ
Experiment: AR Antagonist Cell Assay (MMTV-luciferase reporter, DHT-stimulated)
Type: cell-based
Conditions: MDA-MB453-MMTV clone 54-19 cells, inhibition of induction by 100 pM DHT, 17 hr
Description: The compounds ability to antagonize the effects of androgen on the androgen receptor were determined in the protocol described immediately below.
Experimental Procedure for AR Antagonist Cell Assay
Cell line: MDA-MB453-MMTV clone 54-19. This cell line is a stable transfected cell line with MDA-MB453 cell background (human breast tumor cell expressing high level of androgen receptor). A MMTV minimal promoter containing ARE was first cloned in front of a firefly luciferase reporter gene. Then the cascade was cloned into transfection vector pUV120puro. Electroporation method was used for transfecting MDA-MB-453 cell. Puromycin resistant stable cell line was selected.
Cell Culture Media and Reagents:
Culture medium: DMEM (high glucose, Gibco cat #: 11960-044), 10% FBS, and 1% L-glutamine
Plating medium: DMEM (phenol red free), 10% charcoal treated HyClone serum, 1% L-glutamine
Assay medium: DMEM (phenol red free), 1% charcoal treated HyClone serum, 1% L-glutamine, and 1% penicillin/streptomycin
3×luciferase buffer: 2% beta-mercaptoethanol, 0.6% ATP, 0.0135% luciferine in cell lysis buffer
• 1. Cells are maintained in culture medium, splitting cells when they reach 80–90% confluence • 2. To test compounds, 10,000 cells/well are plated to opaque 96 cell culture plate in 100 ul/well plating medium, culture for overnight at 37° C. in cell culture incubator • 3. Carefully remove plating medium, then add 80 ul/well of pre-warmed assay medium, add 10 ul/well testing compound (final concentration at 10 uM or 1 uM), incubate at 37° C. for 30 minutes • 4. Add 10 ul/well freshly prepared DHT (final concentration at 100 pM) to each well, incubate at 37° C. for 17 hr (overnight) • 5. Add 50 ul/well 3×luciferase buffer, incubate at room temperature for 5 minutes, then count on Luminometer
The fold induction over background by 100 pM DHT in the absence of testing compounds is standardized as 100% and experimental result is expressed as percentage of inhibition by testing compounds.

IC50	Structure (SMILES)
6.5 µM	CC1CN(S(=O)(=O)c2ccc(Cc3ccc4[nH]c(=O)cc(C(F)(F)F)c4c3)cc2)CC(C)O1 (centres unmarked) [Example 24, 6-[4-(2,6-Dimethylmorpholine-4-sulfonyl)benzyl]-4-trifluoromethyl-1H-quinolin-2-one]
3.4 µM	O=c1cc(C(F)(F)F)c2cc(Cc3ccc(S(=O)(=O)N4CCCC4CO)cc3)ccc2o1 (centres unmarked) [Example 52, 6-[4-(2-Hydroxymethyl-pyrrolidine-1-sulfonyl)benzyl]-4-trifluoromethylchromen-2-one]
7.2 µM	O=c1cc(C(F)(F)F)c2cc(Cc3ccc(S(=O)(=O)N4CCC5(CC4)OCCO5)cc3)ccc2o1 [Example 36, 6-[4-(1,4-Dioxa-8-azaspiro[4.5]decane-8-sulfonyl)benzyl]-4-trifluoromethylchromen-2-one]
2.5 µM	O=c1cc(C(F)(F)F)c2cc(Cc3ccc(S(=O)(=O)N4CCCN(CCc5ccccc5)CC4)cc3)ccc2o1 [Example 54]
> 10 µM	O=c1cc(C(F)(F)F)c2cc(Cc3ccc(S(=O)(=O)N4CCN(CCOCCO)CC4)cc3)ccc2o1 [Example 42, 6-(4-{4-[2-(2-Hydroxyethoxy)ethyl]-piperazine-1-sulfonyl}benzyl)-4-trifluoromethylchromen-2-one]
